Assays:
Format in all cases: binding
[1] = molecular target: T1, KDM4ATTD (JMJD2A, Q897-P1011) (Homo sapiens, UniProt O75164); experiment: ITC, association of histone H3 peptides with KDM4ATTD
T1 construct: KDM4ATTD (JMJD2A, Q897-P1011); made in house; host or cells: E. coli
T1 sequence (O75164 897-1011): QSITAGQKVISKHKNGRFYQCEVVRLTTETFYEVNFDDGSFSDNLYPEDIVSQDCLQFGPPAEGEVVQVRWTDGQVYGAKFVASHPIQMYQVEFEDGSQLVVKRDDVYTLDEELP
Description: (§1) We investigated the thermodynamics of association of the H3KP4me3 peptide with five representative human reader domains containing either a PHD zinc finger or TTD, i.e. KDM5APHD3 (JARID1A-PHD3, residues M1489–V1641)[10], TAF3PHD (R857–K924)[22], BPTFPHD (L2583–N2751)[23], SGF29TTD (R115–K293)[24] and KDM4ATTD (JMJD2A, Q897-P1011)[25], selected on the basis of their preference for binding Ν^ε-trimethyllysine over other (non)methylation marks (Kme0 < Kme1 < Kme2 < Kme3), and their domain and aromatic cage diversity. The recombinant readers were produced in E. coli following reported procedures. Isothermal titration calorimetric (ITC) analyses were used to determine the dissociation constant (Kd), the Gibbs free energy of binding (ΔG°), the enthalpy of binding (ΔH°), and the entropy of binding (ΔS°). […] (Table 1, Fig. 2, Supplementary Fig. 1).
(§2) The following purified reader domains: TAF3PHD (R857-K924), KDM5APHD3 (JARID1A, M1489-V1641), BPTFPHD (L2583-N2751), KDM4ATTD (JMJD2A, Q897-P1011) and SGF29TTD (R115-K293) were prepared as reported[10],[22]–[26]. The histone lysine demethylase were produced and purified to high purity via reported procedures KDM3A (JMJD1A, T515-S1317)[41], KDM4AJmjC[39] (JMJD2A, M1-L359), KDM4EJmjC (JMJD2E, M1–Q337)[34] and KDM7B[40] (PHF8, M37-N483 [NP_001171]). KDM5DJmjC was produced using an N-terminal hexa-His tagged KDM4D (KDM4DM1-L358) DNA construct, transformed into BL21(DE3) competent cells for recombinant protein production. Colonies were used to inoculate of LB media (50 mL) containing kanamycin (50 µg·mL^−1) and chloramphenicol (34 µg·mL^−1), which was placed in a 37 °C shaker overnight. The starter culture (10 mL) was used to inoculate TB media (6 × 1 L) containing kanamycin (50 µg·mL^−1) in 2 L baffled shaker flasks. After reaching an of OD600 of ~0.8, the temperature was reduced to 18 °C; at OD600 ~0.9 the cells were induced by the IPTG (0.5 mM) addition. After shaking overnight, the culture was centrifuged (5000 rpm, 10 mins), the media was decanted, and the cell pellet was suspended in Lysis Buffer [HEPES (50 mM), NaCl (500 mM), imidazole (20 mM), glycerol (5%) and TCEP (0.5 mM) in water (pH 7.4)]. The suspension was lysed by passaging through a high-pressure cell breaker (Avestin – EmulsiFlex-C5) for three rounds. The lysate was cleared by centrifugation (60 minutes, 36,000 × g, 4 °C), then loaded onto a Ni NTA gravity column. After extensive rinsing of the Ni-NTA gravity column with lysis buffer, the His-tagged protein was eluted in lysis buffer containing 300 mM imidazole. The eluted protein was concentrated and subjected to gel filtration chromatography using an AKTA Xpress system, an S200 16/600 gel filtration column, and GF buffer [HEPES (50 mM), NaCl (150 mM), glycerol (5%) and TCEP (0.5 mM) in water (pH 7.4)]. The protein identity was verified by LC-MS (ESI-TOF) observing a mass of 43759.7 Da, in accord with the predicted mass of 43751.6 Da.
ITC studies followed a reported procedure. The buffer used corresponded to that used in the final protein purification step. Briefly, TAF3PHD and KDM4ATTD: [Tris (50 mM) in water (pH 7.5)]; KDM5APHD3 and BTPFPHD: [Tris (50 mM), NaCl (20 mM) in water (pH 7.5)]; [Tris (25 mM), NaCl (50 mM), 1,4-dithiothreitol (1.0 mM) in water (pH 7.5)]. Experiments were conducted using ITC200 automated (GE Healthcare Life Sciences, USA) instrument at 25 °C. Histone peptide titrations were performed with the same reader batches. Solutions of the reader in buffer (25–40 µM) and of the histone H3 peptide (350–600 µM) in buffer were prepared. The prepared solutions were plated into a 96-well plate and inserted into the instrument for analysis. Experiments were performed according to manufacturer’s default settings: Plate pre-rinse syringe clean. A total of 19 injections were performed; each experiment was repeated 3–5 times. Heats of dilution for histone peptides determined in control experiments were subtracted from the titration binding data. […]

[2] = molecular target: T2, KDM5APHD3 (JARID1A-PHD3, residues M1489–V1641) (Homo sapiens, UniProt P29375); experiment: ITC, association of histone H3 peptides with KDM5APHD3; conditions: 25 °C, H3 1-10 peptide, Tris (50 mM), NaCl (20 mM), pH 7.5, from 3 to 5 experiments, ± SD
T2 construct: KDM5APHD3 (JARID1A-PHD3, residues M1489–V1641); made in house; host or cells: E. coli
T2 sequence (P29375 1489-1641): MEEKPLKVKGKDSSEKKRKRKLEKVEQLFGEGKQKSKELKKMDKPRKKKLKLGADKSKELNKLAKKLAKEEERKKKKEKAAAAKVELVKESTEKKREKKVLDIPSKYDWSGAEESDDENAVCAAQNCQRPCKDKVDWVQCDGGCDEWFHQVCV
Description: as §1
as §2, with “After extensive rinsing of the Ni-NTA gravity column with lysis buffer, the His-tagged protein was eluted in lysis buffer containing 300 mM imidazole. The eluted protein was concentrated and subjected to gel filtration chromatography using an AKTA Xpress system, an S200 16/600 gel filtration column, and GF buffer [HEPES (50 mM), NaCl (150 mM), glycerol (5%) and TCEP (0.5 mM) in water (pH 7.4)]. The protein identity was verified by LC-MS (ESI-TOF) observing a mass of 43759.7 Da, in accord with the predicted mass of 43751.6 Da.” left out
ITC studies followed a reported procedure. […] Histone peptide titrations were performed with the same reader batches. Solutions of the reader in buffer (25–40 µM) and of the histone H3 peptide (350–600 µM) in buffer were prepared. […] Heats of dilution for histone peptides determined in control experiments were subtracted from the titration binding data. […]

SGF29TTD (R115–K293) = molecular target: T3, SGF29TTD (R115–K293) (Homo sapiens, UniProt Q96ES7); experiment: ITC, association of histone H3 peptides with SGF29TTD
T3 construct: SGF29TTD (R115–K293); made in house; host or cells: E. coli
T3 sequence (Q96ES7 115-293): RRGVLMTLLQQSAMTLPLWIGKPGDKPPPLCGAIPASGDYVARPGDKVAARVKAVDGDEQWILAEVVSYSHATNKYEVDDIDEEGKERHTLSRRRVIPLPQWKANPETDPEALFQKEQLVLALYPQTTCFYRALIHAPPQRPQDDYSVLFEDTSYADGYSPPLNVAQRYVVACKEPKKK
Description: as §1, §2
ITC studies followed a reported procedure. The buffer used corresponded to that used in the final protein purification step. […] Histone peptide titrations were performed with the same reader batches. Solutions of the reader in buffer (25–40 µM) and of the histone H3 peptide (350–600 µM) in buffer were prepared. […] Heats of dilution for histone peptides determined in control experiments were subtracted from the titration binding data. […]

[3] = 25 °C, H3 1-10 peptide, Tris (50 mM), pH 7.5, from 3 to 5 experiments, ± SD
[4] = 25 °C, H3 1-10 peptide, pH 7.5, from 3 to 5 experiments, ± SD

Compound: C[C@H](N)C(=O)N[C@@H](CCCNC(=N)N)C(=O)N[C@H](C(=O)N[C@@H](CCCC[P+](C)(C)C)C(=O)N[C@@H](CCC(N)=O)C(=O)N[C@H](C(=O)N[C@@H](C)C(=O)N[C@@H](CCCNC(=N)N)C(=O)N[C@@H](CCCCN)C(=O)N[C@@H](CO)C(N)=O)[C@@H](C)O)[C@@H](C)O [H3KP4me3]
- -TΔS° [1, 3]: 8.8 ± 0.1 kcal/mol
- ΔG° [1, 3]: -8.9 ± 0.1 kcal/mol
- ΔH° [1, 3]: -17.7 ± 0.1 kcal/mol
- fold stronger binding (ΔKd), H3KP4me3 versus H3K4me3 ([1]; KDM4ATTD): ~ 12 fold
- ΔΔH°, H3KP4me3 relative to H3K4me3 ([1]; KDM4ATTD): -4.7 kcal/mol
- -TΔS° [2]: 1.9 ± 0.1 kcal/mol
- ΔG° [2]: -9.1 ± 0.1 kcal/mol
- ΔH° [2]: -11.0 ± 0.1 kcal/mol
- -TΔS° (SGF29TTD (R115–K293); [4]): 1.0 ± 0.1 kcal/mol
- ΔG° (SGF29TTD (R115–K293); [4]): -7.6 ± 0.1 kcal/mol
- ΔH° (SGF29TTD (R115–K293); [4]): -8.6 ± 0.1 kcal/mol
- binding affinity relative to H3K4me3 (SGF29TTD (R115–K293); SGF29TTD): comparable binding affinity for H3K4me3 and H3KP4me3

From publication PMC7613515, “Reading and erasing of the phosphonium analogue of trimethyllysine by epigenetic proteins” (Communications Chemistry, 2022)
